Values after ≈ are worked out from the molar mass of the structure shown. Active and inactive are the calls of the source. The calls are words filed in the database; no cut-off is given here.
Key:
[1] = Selectivity index, ratio of EC50 for human HepG2 cells to EC50 for Plasmodium falciparum 3D7 asexual blood stage infected in human erythrocytes; format: toxicity, cell-based; conditions: read-out: Ratio EC50
Plasmodium falciparum [2] = test: Antimalarial activity against Plasmodium falciparum 3D7 asexual blood stage infected in human erythrocytes incubated for 72 hrs by LDH assay; format: functional, cell-based; conditions: 3D7, 72 h
Plasmodium falciparum [3] = test: Antimalarial activity against chloroquine and mefloquine resistant Plasmodium falciparum W2mef infected in human erythrocytes incubated for 72 hrs by LDH assay; format: functional, cell-based
HepG2 = test: Cytotoxicity against human HepG2 cells assessed as growth inhibition after 48 hrs by Cell Titer-Glo assay; format: cell-based; conditions: HepG2, 48 h
Plasmodium falciparum [4] = test: Antimalarial activity against synchronous culture of Plasmodium falciparum 3D7 infected in human erythrocytes assessed as development arrest at ring stage of asexual life cycle leading to parasite death at 10 times EC50 up to 48 hrs by Giemsa-staining based assay relative to control; format: functional, cell-based
[5] = Intrinsic clearance in mouse liver microsomes at 1 uM in presence of NADPH by LC-MS method; format: ADME, microsome; conditions: read-out: CLH
[6] = Aqueous solubility of the compound at pH 2 by nephelometry; format: physicochemical
[7] = Ratio of EC50 for Plasmodium falciparum NF54-pfs16-LUC-GFP ring stage gametocytes to EC50 for Plasmodium falciparum 3D7 asexual blood stage infected in human erythrocytes; format: functional
Liver [8] = test: Drug metabolism in mouse liver microsomes assessed as N-demethylation of methyl piperidine or piperazine at 1 uM after 60 mins in presence of NADPH by LC-MS method; format: ADME, microsome; conditions: 1 h
Plasma [9] = test: Drug uptake in Plasmodium berghei ANKA infected Swiss black mouse plasma at 20 mg/kg, ip measured after 20 hrs; format: ADME, organism-based; conditions: in vivo
[10] = Half life in mouse liver microsomes at 1 uM in presence of NADPH by LC-MS method; format: ADME, microsome
[11] = Half life in human liver microsomes at 1 uM in presence of NADPH by LC-MS method; format: ADME, microsome
Plasma [12] = test: Drug uptake in Plasmodium berghei ANKA infected Swiss black mouse plasma at 20 mg/kg, po via gavage measured after 20 hrs; format: ADME, organism-based; conditions: in vivo
Liver [13] = test: Drug metabolism in mouse liver microsomes assessed as mono-oxygenation at 6th position of quinazoline at 1 uM after 60 mins in presence of NADPH by LC-MS method; format: ADME, microsome; conditions: 1 h
Plasmodium falciparum [14] = test: Antimalarial activity against Plasmodium falciparum NF54 harboring pfs16-LUC-GFP early stage 1 to 3 gametocytes after 48 hrs by MitoTracker Red staining based confocal microscopy; format: functional; conditions: NF54, 48 h
Plasmodium falciparum [15] = test: Antimalarial activity against Plasmodium falciparum NF54 harboring pfs16-LUC-GFP ring stage gametocytes after 24 hrs by MitoTracker Red staining based confocal microscopy; format: functional; conditions: NF54, 24 h
[16] = Hepatic extraction ratio in mouse liver microsomes at 1 uM in presence of NADPH by LC-MS method; format: ADME, microsome; conditions: read-out: ERH
Plasmodium falciparum [17] = test: Antimalarial activity against Plasmodium falciparum 3D7 infected in human erythrocytes assessed as arrest at trophozoite stage of asexual life cycle leading to parasite death at 10 times EC50 up to 48 hrs by Giemsa-staining based assay relative to control; format: functional, cell-based
[18] = Aqueous solubility of the compound at pH 6.5 by nephelometry; format: physicochemical
[19] = Intrinsic clearance in human liver microsomes at 1 uM in presence of NADPH by LC-MS method; format: ADME, microsome; conditions: read-out: CLH
[20] = Hepatic extraction ratio in human liver microsomes at 1 uM in presence of NADPH by LC-MS method; format: ADME, microsome; conditions: read-out: ERH
[21] = Ratio of EC50 for Plasmodium falciparum NF54-pfs16-LUC-GFP early stage gametocytes to EC50 for Plasmodium falciparum 3D7 asexual blood stage infected in human erythrocytes; format: functional
Liver [22] = test: Drug metabolism in human liver microsomes assessed as N-demethylation of methyl piperidine or piperazine at 1 uM after 60 mins in presence of NADPH by LC-MS method; format: ADME, microsome; conditions: 1 h
Liver [23] = test: Drug metabolism in human liver microsomes assessed as mono-oxygenation at 6th position of quinazoline at 1 uM after 60 mins in presence of NADPH by LC-MS method; format: ADME, microsome; conditions: 1 h
Plasmodium falciparum [24] = test: Antimalarial activity against Plasmodium falciparum NF54 harboring pfs16-LUC-GFP late stage 4 to 5 gametocytes after 48 hrs by MitoTracker Red staining based confocal microscopy; format: functional; conditions: NF54, 48 h
Liver [25] = test: Drug metabolism in human liver microsomes assessed as O-demethylation of 6 and 7 methoxy groups at 1 uM after 60 mins in presence of NADPH by LC-MS method; format: ADME, microsome; conditions: 1 h
Liver [26] = test: Drug metabolism in mouse liver microsomes assessed as O-demethylation of 6 and 7 methoxy groups at 1 uM after 60 mins in presence of NADPH by LC-MS method; format: ADME, microsome; conditions: 1 h
Plasmodium falciparum [27] = test: Antimalarial activity against synchronous culture of Plasmodium falciparum 3D7 ring stage parasite infected in human erythrocytes incubated for 3 hrs followed by compound wash out and measured after 24 hrs by NanoGlo-reagent based bioluminescence assay; format: functional, cell-based
Plasmodium falciparum [28] = test: Antimalarial activity against synchronous culture of Plasmodium falciparum 3D7 ring stage parasite infected in human erythrocytes incubated for 24 hrs followed by compound wash out and measured after 24 hrs by NanoGlo-reagent based bioluminescence assay; format: functional, cell-based; conditions: 3D7, 24 h
Plasmodium berghei [29] = test: Antimalarial activity against Plasmodium berghei ANKA infected Swiss black mouse model at 20 mg/kg administered via oral gavage for 4 days starting 4 hrs post infection by microscopic method; format: functional
Plasmodium berghei [30] = test: Antimalarial activity against Plasmodium berghei ANKA infected Swiss black mouse at 20 mg/kg, ip administered for 4 days starting 4 hrs post infection by microscopic method; format: functional
Plasmodium falciparum [31] = test: Antimalarial activity against synchronous culture of Plasmodium falciparum 3D7 ring stage parasite infected in human erythrocytes incubated for 6 hrs followed by compound wash out and measured after 24 hrs by NanoGlo-reagent based bioluminescence assay; format: functional, cell-based

Which results are given for `Clc1cc(Nc2nc(NCc3ccccc3)c3ccccc3n2)ccc1Br`?
selectivity ratio [1]: 40; EC50 (Plasmodium falciparum [2]): 137 nM; EC50 (Plasmodium falciparum [3]): 128 nM; EC50 (HepG2): 2900 nM

What does the source list for `CN1CCC(Nc2nc(Nc3ccc(F)c(Cl)c3)nc3cccnc23)CC1`?
selectivity ratio [1]: 86; EC50 (Plasmodium falciparum [2]): 134 nM; EC50 (HepG2): 11500 nM

Which selectivity ratio [1] does the source give for `Cn1ncc2c(NCc3ccccc3)nc(Nc3ccc(F)cc3)nc21` here?
The selectivity ratio was 3.

What about the EC50 (Plasmodium falciparum [2]) of the same compound?
Its EC50 is 7600 nM.

What about the EC50 (HepG2) of the same compound?
The EC50 was 26000 nM.

For `Fc1cccc(Nc2nc(NCC3CCCO3)c3ccccc3n2)c1` (stereo not given), which selectivity ratio [1] is on record?
The selectivity ratio was 39.

And the EC50 (Plasmodium falciparum [2])?
Its EC50 is 144 nM.

What about the EC50 (HepG2) of the same compound?
The EC50 was 8600 nM.

Which results are given for `COc1ccccc1Nc1nc(NCC2CCCO2)c2ccccc2n1` (stereo not given)?
selectivity ratio [1]: 47; EC50 (Plasmodium falciparum [2]): 526 nM; EC50 (HepG2): 24500 nM

What does the source list for `CN1CCC(Nc2nc(Nc3ccc(Cl)c(F)c3)nc3ccccc23)CC1.Cl.Cl`?
Activity (Plasmodium falciparum [4]): Active; microsomal CLint at 1 µM [5]: 9 µL/min/mg; solubility kinetic [6]: > 90 µM; Ratio EC50 [7]: 10; Drug metabolism (Liver [8]): Metabolite_Detected; selectivity ratio [1]: 179; Drug uptake (Plasma [9]): Active; half-life at 1 µM [10]: 3.2 h; half-life at 1 µM [11]: 3.02 h; Drug uptake (Plasma [12]): Active; Drug metabolism (Liver [13]): Metabolite_Detected; EC50 (Plasmodium falciparum [14]): 554 nM; EC50 (Plasmodium falciparum [15]): 220 nM; hepatic extraction ratio at 1 µM [16]: 0.16; Activity (Plasmodium falciparum [17]): inactive; EC50 (Plasmodium falciparum [2]): 28 nM; solubility kinetic [18]: 4.2 to 8.4 µM; microsomal CLint at 1 µM [19]: 10 µL/min/mg; hepatic extraction ratio at 1 µM [20]: 0.28; EC50 (Plasmodium falciparum [3]): 61 nM; EC50 (HepG2): 5100 nM; Ratio EC50 [21]: 15 - 25; Drug metabolism (Liver [22]): Metabolite_Detected; Drug metabolism (Liver [23]): Metabolite_Detected; EC50 (Plasmodium falciparum [24]): 2700 nM

Which results are given for `CC(=O)Nc1ccc(Nc2nc(NCC3CCCO3)c3ccccc3n2)cc1` (stereo not given)?
selectivity ratio [1]: 140; EC50 (Plasmodium falciparum [2]): 274 nM; EC50 (HepG2): 38300 nM

With `COc1cc2nc(Nc3ccc(F)cc3)nc(NCc3ccccc3)c2cc1OC` as the compound, how does the microsomal CLint at 1 µM [5] read?
Its microsomal CLint at 1 µM is 35 µL/min/mg.

What about the solubility kinetic [6] of the same compound?
Its solubility kinetic is 1.6 to 3.1 µM (≈ 0.647 to 1.25 µg/mL).

What about the Drug metabolism (Liver [25]) of the same compound?
Its Drug metabolism is “Metabolite_Detected”.

And the selectivity ratio [1]?
Its selectivity ratio is 109.

What about the Drug metabolism (Liver [26]) of the same compound?
Its Drug metabolism is “Metabolite_Detected”.

What about the half-life at 1 µM [10] of the same compound?
The half-life at 1 µM was 0.817 h.

What about the half-life at 1 µM [11] of the same compound?
Its half-life at 1 µM is greater than 4.12 h.

And the hepatic extraction ratio at 1 µM [16]?
The hepatic extraction ratio at 1 µM was 0.43.

And the EC50 (Plasmodium falciparum [2])?
The EC50 was 41 nM.

And the solubility kinetic [18]?
Its solubility kinetic is 1.6 to 3.1 µM (≈ 0.647 to 1.25 µg/mL).

What about the microsomal CLint at 1 µM [19] of the same compound?
The microsomal CLint at 1 µM was less than 7 µL/min/mg.

And the hepatic extraction ratio at 1 µM [20]?
Its hepatic extraction ratio at 1 µM is less than 0.22.

And the EC50 (HepG2)?
Its EC50 is 2800 nM.

For `Fc1ccccc1Nc1nc(NCC2CCCO2)c2ccccc2n1` (stereo not given), which selectivity ratio [1] is on record?
The selectivity ratio was 75.

What about the EC50 (Plasmodium falciparum [2]) of the same compound?
Its EC50 is 317 nM.

What about the EC50 (HepG2) of the same compound?
The EC50 was 21300 nM.

What does the source list for `Fc1ccc(Nc2nc(NCc3ccco3)c3ccccc3n2)cc1`?
selectivity ratio [1]: 43; EC50 (Plasmodium falciparum [2]): 112 nM; EC50 (HepG2): 4900 nM

What does the source list for `FC(F)(F)c1ccc(Nc2nc(NCc3ccccc3)c3ccccc3n2)cn1`?
selectivity ratio [1]: 87; EC50 (Plasmodium falciparum [2]): 102 nM; EC50 (HepG2): 8900 nM

What does the source list for `CN1CCN(CCNc2nc(Nc3ccc(Cl)c(F)c3)nc3ccccc23)CC1.Cl.Cl`?
Activity (Plasmodium falciparum [4]): Active; microsomal CLint at 1 µM [5]: 37 µL/min/mg; solubility kinetic [6]: > 90 µM; Ratio EC50 [7]: 10; Drug metabolism (Liver [8]): Metabolite_Detected; EC50 (Plasmodium falciparum [27]): 3340 nM; EC50 (Plasmodium falciparum [28]): 637 nM; Activity (Plasmodium berghei [29]): >90%; selectivity ratio [1]: 275; Activity (Plasmodium berghei [30]): >98%; Drug uptake (Plasma [9]): Active; half-life at 1 µM [10]: 0.783 h; half-life at 1 µM [11]: 1.28 h; Drug uptake (Plasma [12]): Active; Drug metabolism (Liver [13]): Metabolite_Detected; EC50 (Plasmodium falciparum [14]): 453 nM; EC50 (Plasmodium falciparum [15]): 207 nM; hepatic extraction ratio at 1 µM [16]: 0.44; Activity (Plasmodium falciparum [17]): inactive; EC50 (Plasmodium falciparum [2]): 27 nM; solubility kinetic [18]: 10.9 to 22 µM; microsomal CLint at 1 µM [19]: 23 µL/min/mg; hepatic extraction ratio at 1 µM [20]: 0.47; Activity (Plasmodium falciparum [31]): Dose dependent effect; EC50 (Plasmodium falciparum [31]): 3120 nM; EC50 (Plasmodium falciparum [3]): 57 nM; EC50 (HepG2): 7500 nM; Ratio EC50 [21]: 15 - 25; Drug metabolism (Liver [22]): Metabolite_Detected; Drug metabolism (Liver [23]): Metabolite_Detected; EC50 (Plasmodium falciparum [24]): 4000 nM

For `COC(=O)c1ccc(Nc2nc(NCc3ccco3)c3ccccc3n2)cc1`, which selectivity ratio [1] is on record?
Its selectivity ratio is 58.

What about the EC50 (Plasmodium falciparum [2]) of the same compound?
Its EC50 is 574 nM.

What about the EC50 (HepG2) of the same compound?
Its EC50 is 33500 nM.
